Reference: the NIST ThermoML archive (doi:10.1021/acs.jced.6b00496)
± gives the expanded uncertainty stated by the source.

Test: xn = mol fraction of the nth substance listed
Details: 81.5 kPa, Liquid; for speed of sound: Sing-around technique in a fixed-path interferometer; for mass density: Vibrating tube method

CCn1cc[n+](C)c1.F[B-](F)(F)F [1-ethyl-3-methylimidazolium tetrafluoroborate] + CC(=O)N(C)C
Details	mass density [kg/m3]	speed of sound [m/s]
293.15 K, x1 = 0.131	1020.02 ± 4.1	1520.9 ± 3.3
293.15 K, x1 = 0.198	1054.86 ± 4.2	1544.9 ± 3.3
293.15 K, x1 = 0.2976	1098.69 ± 4.4	1566.5 ± 3.3
293.15 K, x1 = 0.3868	1134.17 ± 4.6	1581.8 ± 3.4
293.15 K, x1 = 0.4734	1164.33 ± 4.7	1594.3 ± 3.4
293.15 K, x1 = 0.563	1190.97 ± 4.8	1606.8 ± 3.5
293.15 K, x1 = 0.7089	1230.24 ± 5	1620 ± 3.5
293.15 K, x1 = 0.7973	1244.59 ± 5.1	1625.7 ± 3.6
293.15 K, x1 = 0.8821	1257.25 ± 5.2	1629.9 ± 3.6
293.15 K, x1 = 1	1285.95 ± 5.3	1640.4 ± 3.7
298.15 K, x1 = 0.131	1015.67 ± 4.1	1502.5 ± 3.3
298.15 K, x1 = 0.198	1050.63 ± 4.2	1527.6 ± 3.3
298.15 K, x1 = 0.2976	1094.55 ± 4.4	1550.4 ± 3.3
298.15 K, x1 = 0.3868	1130.11 ± 4.6	1566.4 ± 3.4
298.15 K, x1 = 0.4734	1160.32 ± 4.7	1579.8 ± 3.4
298.15 K, x1 = 0.563	1187.07 ± 4.8	1592.9 ± 3.5
298.15 K, x1 = 0.7089	1226.34 ± 5	1606.9 ± 3.5
298.15 K, x1 = 0.7973	1240.73 ± 5.1	1613 ± 3.6
298.15 K, x1 = 0.8821	1253.4 ± 5.1	1617.4 ± 3.6
298.15 K, x1 = 1	1282.14 ± 5.3	1628.4 ± 3.7
303.15 K, x1 = 0.131	1011.32 ± 4.1	1484.4 ± 3.3
303.15 K, x1 = 0.198	1046.39 ± 4.2	1510.4 ± 3.3
303.15 K, x1 = 0.2976	1090.43 ± 4.4	1534.3 ± 3.3
303.15 K, x1 = 0.3868	1126.06 ± 4.5	1551.3 ± 3.4
303.15 K, x1 = 0.4734	1156.33 ± 4.7	1565.3 ± 3.4
303.15 K, x1 = 0.563	1183.16 ± 4.8	1579.1 ± 3.5
303.15 K, x1 = 0.7089	1222.46 ± 5	1594.1 ± 3.5
303.15 K, x1 = 0.7973	1236.88 ± 5.1	1600.4 ± 3.6
303.15 K, x1 = 0.8821	1249.55 ± 5.1	1605.1 ± 3.6
303.15 K, x1 = 1	1278.34 ± 5.3	1616 ± 3.7
308.15 K, x1 = 0.131	1006.92 ± 4	1466.5 ± 3.3
308.15 K, x1 = 0.198	1042.17 ± 4.2	1493.4 ± 3.3
308.15 K, x1 = 0.2976	1086.31 ± 4.4	1518.5 ± 3.3
308.15 K, x1 = 0.3868	1122.03 ± 4.5	1536.2 ± 3.4
308.15 K, x1 = 0.4734	1152.37 ± 4.6	1551.1 ± 3.4
308.15 K, x1 = 0.563	1179.25 ± 4.8	1565.5 ± 3.5
308.15 K, x1 = 0.7089	1218.61 ± 5	1581.4 ± 3.5
308.15 K, x1 = 0.7973	1233.06 ± 5	1588 ± 3.6
308.15 K, x1 = 0.8821	1245.73 ± 5.1	1592.9 ± 3.6
308.15 K, x1 = 1	1274.55 ± 5.3	1604.9 ± 3.7
313.15 K, x1 = 0.131	1002.63 ± 4	1448.8 ± 3.3
313.15 K, x1 = 0.198	1037.96 ± 4.2	1476.5 ± 3.3
313.15 K, x1 = 0.2976	1082.21 ± 4.3	1502.7 ± 3.3
313.15 K, x1 = 0.3868	1118 ± 4.5	1521.4 ± 3.4
313.15 K, x1 = 0.4734	1148.41 ± 4.6	1536.9 ± 3.4
313.15 K, x1 = 0.563	1175.34 ± 4.8	1552.1 ± 3.5
313.15 K, x1 = 0.7089	1214.78 ± 4.9	1568.8 ± 3.5
313.15 K, x1 = 0.7973	1229.25 ± 5	1575.7 ± 3.6
313.15 K, x1 = 0.8821	1241.92 ± 5.1	1580.8 ± 3.6
313.15 K, x1 = 1	1270.78 ± 5.2	1593.4 ± 3.7
318.15 K, x1 = 0.131	998.322 ± 4	1431.2 ± 3.3
318.15 K, x1 = 0.198	1033.75 ± 4.1	1459.8 ± 3.3
318.15 K, x1 = 0.2976	1078.11 ± 4.3	1487.1 ± 3.3
318.15 K, x1 = 0.3868	1113.98 ± 4.5	1506.6 ± 3.4
318.15 K, x1 = 0.4734	1144.47 ± 4.6	1522.9 ± 3.4
318.15 K, x1 = 0.563	1171.44 ± 4.7	1538.7 ± 3.5
318.15 K, x1 = 0.7089	1210.93 ± 4.9	1556.3 ± 3.5
318.15 K, x1 = 0.7973	1225.46 ± 5	1563.5 ± 3.6
318.15 K, x1 = 0.8821	1238.13 ± 5.1	1568.9 ± 3.6
318.15 K, x1 = 1	1267.03 ± 5.2	1582 ± 3.7
323.15 K, x1 = 0.131	994.081 ± 4	1413.7 ± 3.3
323.15 K, x1 = 0.198	1029.41 ± 4.1	1443.1 ± 3.3
323.15 K, x1 = 0.2976	1074.03 ± 4.3	1471.6 ± 3.3
323.15 K, x1 = 0.3868	1109.98 ± 4.5	1491.9 ± 3.4
323.15 K, x1 = 0.4734	1140.55 ± 4.6	1509 ± 3.4
323.15 K, x1 = 0.563	1167.54 ± 4.7	1525.4 ± 3.5
323.15 K, x1 = 0.7089	1207.14 ± 4.9	1543.9 ± 3.5
323.15 K, x1 = 0.7973	1221.69 ± 5	1551.4 ± 3.6
323.15 K, x1 = 0.8821	1234.36 ± 5.1	1557 ± 3.6
323.15 K, x1 = 1	1263.3 ± 5.2	1570.6 ± 3.7
328.15 K, x1 = 0.131	990.013 ± 4	1396.4 ± 3.3
328.15 K, x1 = 0.198	1025.2 ± 4.1	1426.6 ± 3.3
328.15 K, x1 = 0.2976	1069.95 ± 4.3	1456.1 ± 3.3
328.15 K, x1 = 0.3868	1105.98 ± 4.5	1477.4 ± 3.4
328.15 K, x1 = 0.4734	1136.62 ± 4.6	1495.2 ± 3.4
328.15 K, x1 = 0.563	1163.66 ± 4.7	1512.2 ± 3.5
328.15 K, x1 = 0.7089	1203.38 ± 4.9	1531.6 ± 3.5
328.15 K, x1 = 0.7973	1217.94 ± 5	1539.4 ± 3.6
328.15 K, x1 = 0.8821	1230.61 ± 5	1545.3 ± 3.6
328.15 K, x1 = 1	1259.58 ± 5.2	1559.4 ± 3.7
333.15 K, x1 = 0.131	986.018 ± 4	1379 ± 3.3
333.15 K, x1 = 0.198	1021.01 ± 4.1	1410.2 ± 3.3
333.15 K, x1 = 0.2976	1065.88 ± 4.3	1440.9 ± 3.3
333.15 K, x1 = 0.3868	1101.99 ± 4.4	1462.9 ± 3.4
333.15 K, x1 = 0.4734	1132.72 ± 4.6	1481.5 ± 3.4
333.15 K, x1 = 0.563	1159.8 ± 4.7	1499.1 ± 3.4
333.15 K, x1 = 0.7089	1199.69 ± 4.9	1519.4 ± 3.5
333.15 K, x1 = 0.7973	1214.19 ± 5	1527.4 ± 3.6
333.15 K, x1 = 0.8821	1226.87 ± 5	1533.6 ± 3.6
333.15 K, x1 = 1	1255.88 ± 5.2	1548.2 ± 3.7
338.15 K, x1 = 0.131	982.059 ± 3.9	1361.9 ± 3.3
338.15 K, x1 = 0.198	1016.81 ± 4.1	1393.9 ± 3.3
338.15 K, x1 = 0.2976	1061.83 ± 4.3	1425.7 ± 3.3
338.15 K, x1 = 0.3868	1098.01 ± 4.4	1448.6 ± 3.4
338.15 K, x1 = 0.4734	1128.83 ± 4.6	1467.9 ± 3.4
338.15 K, x1 = 0.563	1155.95 ± 4.7	1486.1 ± 3.4
338.15 K, x1 = 0.7089	1195.92 ± 4.9	1507.3 ± 3.5
338.15 K, x1 = 0.7973	1210.46 ± 4.9	1515.6 ± 3.6
338.15 K, x1 = 0.8821	1223.16 ± 5	1528.1 ± 3.6
338.15 K, x1 = 1	1252.2 ± 5.2	1537.2 ± 3.7
343.15 K, x1 = 0.131	978.076 ± 3.9	1344.8 ± 3.3
343.15 K, x1 = 0.198	1012.61 ± 4.1	1377.7 ± 3.3
343.15 K, x1 = 0.2976	1057.78 ± 4.2	1410.6 ± 3.3
343.15 K, x1 = 0.3868	1094.04 ± 4.4	1434.4 ± 3.4
343.15 K, x1 = 0.4734	1124.94 ± 4.5	1454.4 ± 3.4
343.15 K, x1 = 0.563	1152.06 ± 4.7	1473 ± 3.4
343.15 K, x1 = 0.7089	1192.22 ± 4.8	1495.4 ± 3.5
343.15 K, x1 = 0.7973	1206.75 ± 4.9	1503.8 ± 3.6
343.15 K, x1 = 0.8821	1219.46 ± 5	1510.6 ± 3.6
343.15 K, x1 = 1	1248.54 ± 5.2	1526.2 ± 3.7
